Results reported in ChEMBL document CHEMBL1145498, “A systematic interaction map of validated kinase inhibitors with Ser/Thr kinases” (Proc Natl Acad Sci U S A, 2007).

Key:
[1] = target: Cyclin-dependent kinase 2 (Homo sapiens, UniProt P24941)
[2] = target: Casein kinase I isoform gamma-1 (Homo sapiens) (UniProt Q9HCP0)
[3] = target: Casein kinase I isoform gamma-2 (Homo sapiens) (UniProt P78368)
[4] = target: Mitogen-activated protein kinase 6 (Homo sapiens) (UniProt Q16659)
[5] = target: T1, Serine/threonine-protein kinase Nek2 (Homo sapiens) (UniProt P51955)
T1 sequence (whole entry): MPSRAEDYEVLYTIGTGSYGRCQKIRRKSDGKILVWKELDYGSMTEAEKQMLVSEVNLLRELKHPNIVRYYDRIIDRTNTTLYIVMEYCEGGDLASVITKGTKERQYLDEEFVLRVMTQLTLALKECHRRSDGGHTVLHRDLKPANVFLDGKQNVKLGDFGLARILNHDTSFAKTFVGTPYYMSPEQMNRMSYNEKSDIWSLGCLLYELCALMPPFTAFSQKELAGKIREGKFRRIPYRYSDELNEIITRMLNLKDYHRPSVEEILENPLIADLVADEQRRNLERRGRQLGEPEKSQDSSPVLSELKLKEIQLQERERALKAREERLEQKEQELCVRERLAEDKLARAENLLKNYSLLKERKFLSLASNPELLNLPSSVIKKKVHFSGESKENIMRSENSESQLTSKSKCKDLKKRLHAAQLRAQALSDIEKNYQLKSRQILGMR

[6] = target: Serine/threonine-protein kinase PAK 4 (Homo sapiens) (UniProt O96013)
[7] = target: Cyclin-dependent kinase 16 (Homo sapiens) (UniProt Q00536)
[8] = target: Serine/threonine-protein kinase pim-1 (Homo sapiens) (UniProt P11309)
[9] = target: Serine/threonine-protein kinase pim-2 (Homo sapiens, UniProt Q9P1W9)
[10] = target: Serine/threonine-protein kinase pim-3 (Homo sapiens) (UniProt Q86V86)
[11] = target: Ribosomal protein S6 kinase alpha-3 (Homo sapiens) (UniProt P51812)
[12] = target: STE20-like serine/threonine-protein kinase (Homo sapiens) (UniProt Q9H2G2)
[13] = target: Serine/threonine-protein kinase 10 (Homo sapiens) (UniProt O94804)
[14] = target: T2, Serine/threonine-protein kinase 17A (Homo sapiens) (UniProt Q9UEE5)
T2 sequence (whole entry): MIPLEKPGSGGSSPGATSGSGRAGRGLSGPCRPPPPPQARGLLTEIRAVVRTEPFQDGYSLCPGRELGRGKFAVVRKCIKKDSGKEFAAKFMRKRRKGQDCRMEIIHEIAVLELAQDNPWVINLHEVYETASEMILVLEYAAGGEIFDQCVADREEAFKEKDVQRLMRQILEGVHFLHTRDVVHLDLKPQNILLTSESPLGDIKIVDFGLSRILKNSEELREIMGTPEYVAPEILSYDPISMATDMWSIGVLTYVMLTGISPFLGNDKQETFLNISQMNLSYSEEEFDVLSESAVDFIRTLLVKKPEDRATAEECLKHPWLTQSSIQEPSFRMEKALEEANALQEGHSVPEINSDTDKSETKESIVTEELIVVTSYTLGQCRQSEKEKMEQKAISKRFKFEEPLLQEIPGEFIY

[15] = target: Serine/threonine-protein kinase VRK2 (Homo sapiens) (UniProt Q86Y07)
[16] = target: T3, Serine/threonine-protein kinase VRK3 (Homo sapiens) (UniProt Q8IV63)
T3 sequence (whole entry): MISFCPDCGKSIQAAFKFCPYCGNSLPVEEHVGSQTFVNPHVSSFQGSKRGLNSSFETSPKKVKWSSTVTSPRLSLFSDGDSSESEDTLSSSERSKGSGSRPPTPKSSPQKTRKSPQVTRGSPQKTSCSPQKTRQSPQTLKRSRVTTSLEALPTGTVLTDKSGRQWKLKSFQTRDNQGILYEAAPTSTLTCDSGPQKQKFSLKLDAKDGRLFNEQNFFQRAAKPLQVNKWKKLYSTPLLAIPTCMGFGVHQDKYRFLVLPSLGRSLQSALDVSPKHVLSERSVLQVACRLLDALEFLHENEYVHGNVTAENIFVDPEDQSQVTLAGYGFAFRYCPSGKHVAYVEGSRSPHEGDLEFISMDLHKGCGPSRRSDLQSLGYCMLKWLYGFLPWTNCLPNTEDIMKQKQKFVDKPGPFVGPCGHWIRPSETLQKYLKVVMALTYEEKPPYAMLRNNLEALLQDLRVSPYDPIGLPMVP

[17] = target: Serine/threonine-protein kinase 25 (Homo sapiens) (UniProt O00506)
Sequence of Serine/threonine-protein kinase 25 (Homo sapiens) (O00506 whole entry, looked up): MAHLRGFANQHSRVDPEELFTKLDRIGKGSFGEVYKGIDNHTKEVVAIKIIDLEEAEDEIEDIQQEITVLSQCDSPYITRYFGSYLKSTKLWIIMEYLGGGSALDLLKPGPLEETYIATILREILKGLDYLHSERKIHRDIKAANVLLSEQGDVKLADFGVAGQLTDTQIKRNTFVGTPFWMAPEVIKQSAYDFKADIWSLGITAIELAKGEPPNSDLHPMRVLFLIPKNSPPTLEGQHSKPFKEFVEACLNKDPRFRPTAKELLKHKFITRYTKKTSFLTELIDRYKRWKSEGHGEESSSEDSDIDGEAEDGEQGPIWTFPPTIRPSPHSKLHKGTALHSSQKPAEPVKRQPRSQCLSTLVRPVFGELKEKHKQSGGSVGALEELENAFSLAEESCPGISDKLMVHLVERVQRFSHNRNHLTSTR

Sequence of Serine/threonine-protein kinase VRK2 (Homo sapiens) (Q86Y07 whole entry): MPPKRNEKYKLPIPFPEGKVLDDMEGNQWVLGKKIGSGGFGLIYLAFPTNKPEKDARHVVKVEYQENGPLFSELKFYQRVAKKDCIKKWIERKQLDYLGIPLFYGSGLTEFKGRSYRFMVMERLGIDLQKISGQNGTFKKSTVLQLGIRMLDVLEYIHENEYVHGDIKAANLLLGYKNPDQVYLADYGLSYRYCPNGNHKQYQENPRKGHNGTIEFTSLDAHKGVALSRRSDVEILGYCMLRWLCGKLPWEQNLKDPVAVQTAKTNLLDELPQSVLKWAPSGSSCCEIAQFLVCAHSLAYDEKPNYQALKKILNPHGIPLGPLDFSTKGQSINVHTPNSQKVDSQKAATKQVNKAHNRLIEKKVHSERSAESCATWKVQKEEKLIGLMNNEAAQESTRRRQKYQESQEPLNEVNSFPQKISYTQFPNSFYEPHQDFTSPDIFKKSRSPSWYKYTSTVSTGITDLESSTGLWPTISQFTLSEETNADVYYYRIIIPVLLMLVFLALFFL
Sequence of Serine/threonine-protein kinase 10 (Homo sapiens) (O94804 whole entry, looked up): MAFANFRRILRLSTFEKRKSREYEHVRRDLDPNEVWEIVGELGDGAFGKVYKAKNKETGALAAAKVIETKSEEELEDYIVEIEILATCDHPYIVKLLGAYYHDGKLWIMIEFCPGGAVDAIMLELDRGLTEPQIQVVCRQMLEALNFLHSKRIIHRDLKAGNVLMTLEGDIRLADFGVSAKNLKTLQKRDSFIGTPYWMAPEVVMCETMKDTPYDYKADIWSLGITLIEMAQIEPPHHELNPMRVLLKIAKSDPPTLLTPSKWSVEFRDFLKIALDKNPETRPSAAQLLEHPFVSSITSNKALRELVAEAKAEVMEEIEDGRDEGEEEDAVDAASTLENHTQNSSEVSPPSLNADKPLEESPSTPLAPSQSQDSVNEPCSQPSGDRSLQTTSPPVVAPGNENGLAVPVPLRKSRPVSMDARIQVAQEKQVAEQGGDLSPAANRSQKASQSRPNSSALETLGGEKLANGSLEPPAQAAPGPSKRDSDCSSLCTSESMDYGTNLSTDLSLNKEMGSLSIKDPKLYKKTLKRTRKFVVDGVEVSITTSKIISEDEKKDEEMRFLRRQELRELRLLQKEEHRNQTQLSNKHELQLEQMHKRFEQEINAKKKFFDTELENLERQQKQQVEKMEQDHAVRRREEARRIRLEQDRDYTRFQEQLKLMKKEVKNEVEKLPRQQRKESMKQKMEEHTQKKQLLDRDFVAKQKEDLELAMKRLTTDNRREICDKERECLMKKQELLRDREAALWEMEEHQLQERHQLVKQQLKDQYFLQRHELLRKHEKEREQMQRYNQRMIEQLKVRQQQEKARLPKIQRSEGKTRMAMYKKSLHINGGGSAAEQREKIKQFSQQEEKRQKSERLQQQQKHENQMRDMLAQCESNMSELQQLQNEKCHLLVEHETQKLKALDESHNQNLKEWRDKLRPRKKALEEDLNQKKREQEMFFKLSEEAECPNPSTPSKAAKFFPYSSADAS
Sequence of Serine/threonine-protein kinase pim-2 (Q9P1W9 whole entry, looked up): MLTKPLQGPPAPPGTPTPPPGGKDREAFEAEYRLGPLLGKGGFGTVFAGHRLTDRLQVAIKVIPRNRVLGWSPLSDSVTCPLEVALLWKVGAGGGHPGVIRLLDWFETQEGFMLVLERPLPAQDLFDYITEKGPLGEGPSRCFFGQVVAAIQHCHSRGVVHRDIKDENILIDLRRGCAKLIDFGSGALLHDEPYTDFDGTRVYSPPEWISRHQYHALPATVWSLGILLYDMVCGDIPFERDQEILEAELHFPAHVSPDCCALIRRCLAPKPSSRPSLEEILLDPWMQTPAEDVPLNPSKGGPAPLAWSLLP
Sequence of Casein kinase I isoform gamma-2 (Homo sapiens) (P78368 whole entry, looked up, canonical isoform): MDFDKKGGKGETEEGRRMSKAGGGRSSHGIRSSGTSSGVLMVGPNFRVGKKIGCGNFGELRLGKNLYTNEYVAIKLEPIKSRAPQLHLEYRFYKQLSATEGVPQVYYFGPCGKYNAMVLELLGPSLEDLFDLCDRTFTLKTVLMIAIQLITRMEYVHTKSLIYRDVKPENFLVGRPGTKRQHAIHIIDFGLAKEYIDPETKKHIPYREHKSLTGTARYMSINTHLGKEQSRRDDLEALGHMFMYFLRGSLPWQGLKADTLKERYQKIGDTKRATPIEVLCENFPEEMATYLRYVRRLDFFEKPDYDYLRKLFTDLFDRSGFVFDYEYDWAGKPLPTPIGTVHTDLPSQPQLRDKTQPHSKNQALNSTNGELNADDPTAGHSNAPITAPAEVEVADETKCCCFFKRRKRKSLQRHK
Sequence of Cyclin-dependent kinase 16 (Homo sapiens) (Q00536 whole entry): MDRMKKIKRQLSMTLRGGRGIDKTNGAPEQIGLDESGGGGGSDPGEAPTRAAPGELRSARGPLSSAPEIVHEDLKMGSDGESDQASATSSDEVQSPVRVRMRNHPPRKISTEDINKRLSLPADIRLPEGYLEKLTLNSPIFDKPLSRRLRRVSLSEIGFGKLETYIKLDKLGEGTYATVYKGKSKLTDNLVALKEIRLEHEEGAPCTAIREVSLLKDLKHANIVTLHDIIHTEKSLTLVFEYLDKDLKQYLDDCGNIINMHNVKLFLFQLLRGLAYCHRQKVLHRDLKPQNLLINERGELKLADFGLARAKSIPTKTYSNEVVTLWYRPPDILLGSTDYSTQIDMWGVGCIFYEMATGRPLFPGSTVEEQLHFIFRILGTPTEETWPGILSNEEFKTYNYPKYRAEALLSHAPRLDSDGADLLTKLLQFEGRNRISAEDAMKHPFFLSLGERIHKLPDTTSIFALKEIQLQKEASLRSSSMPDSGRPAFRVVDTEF
Sequence of Ribosomal protein S6 kinase alpha-3 (Homo sapiens) (P51812 whole entry): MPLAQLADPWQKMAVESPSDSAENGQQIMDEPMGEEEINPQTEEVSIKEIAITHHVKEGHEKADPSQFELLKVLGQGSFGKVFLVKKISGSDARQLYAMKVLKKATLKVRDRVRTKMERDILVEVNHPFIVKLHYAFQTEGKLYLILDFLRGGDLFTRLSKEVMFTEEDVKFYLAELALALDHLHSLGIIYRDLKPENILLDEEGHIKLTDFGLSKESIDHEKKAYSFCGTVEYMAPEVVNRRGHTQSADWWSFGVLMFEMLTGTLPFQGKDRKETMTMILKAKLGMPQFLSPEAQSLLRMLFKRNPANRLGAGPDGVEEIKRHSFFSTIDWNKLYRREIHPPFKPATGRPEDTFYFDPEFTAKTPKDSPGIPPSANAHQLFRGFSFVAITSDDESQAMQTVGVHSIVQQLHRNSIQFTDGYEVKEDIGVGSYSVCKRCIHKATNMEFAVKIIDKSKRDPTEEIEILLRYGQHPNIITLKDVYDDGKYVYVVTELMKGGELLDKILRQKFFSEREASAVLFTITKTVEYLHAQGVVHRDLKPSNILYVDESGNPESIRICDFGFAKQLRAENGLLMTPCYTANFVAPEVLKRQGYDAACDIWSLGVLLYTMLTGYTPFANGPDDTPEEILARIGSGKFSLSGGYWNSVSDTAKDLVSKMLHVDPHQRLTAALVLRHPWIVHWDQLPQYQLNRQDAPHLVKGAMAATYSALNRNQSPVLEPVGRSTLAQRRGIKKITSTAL
Sequence of Serine/threonine-protein kinase PAK 4 (Homo sapiens) (O96013 whole entry, looked up): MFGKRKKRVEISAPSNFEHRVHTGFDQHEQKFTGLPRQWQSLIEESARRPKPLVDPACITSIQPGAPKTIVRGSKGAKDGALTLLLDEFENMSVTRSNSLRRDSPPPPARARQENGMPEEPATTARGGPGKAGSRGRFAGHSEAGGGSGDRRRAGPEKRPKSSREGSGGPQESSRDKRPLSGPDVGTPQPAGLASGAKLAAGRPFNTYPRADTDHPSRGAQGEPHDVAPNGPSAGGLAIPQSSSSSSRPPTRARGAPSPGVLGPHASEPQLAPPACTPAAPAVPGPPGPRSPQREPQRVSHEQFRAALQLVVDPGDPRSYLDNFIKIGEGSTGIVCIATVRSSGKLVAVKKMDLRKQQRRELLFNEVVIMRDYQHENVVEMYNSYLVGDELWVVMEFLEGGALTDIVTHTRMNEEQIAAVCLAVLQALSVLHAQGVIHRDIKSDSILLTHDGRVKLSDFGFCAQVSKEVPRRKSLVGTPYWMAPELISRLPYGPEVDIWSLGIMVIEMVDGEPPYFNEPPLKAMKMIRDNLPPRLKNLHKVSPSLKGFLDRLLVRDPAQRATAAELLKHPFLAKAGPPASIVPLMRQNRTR

NC1=NC(=O)/C(=C2\CCNC(=O)c3[nH]c(Br)cc32)N1 [HYMENIALDISINE]
ΔTm [1]: 1.5 °C
ΔTm [2]: 5.7 °C
ΔTm [3]: 5.6 °C
ΔTm [4]: -0.1 °C
ΔTm [5]: 0.8 °C
ΔTm [6]: 1.6 °C
ΔTm [7]: 0.1 °C
ΔTm [8]: 0.7 °C
ΔTm [9]: 3.7 °C
ΔTm [10]: 3.8 °C
ΔTm [11]: 4.2 °C
ΔTm [12]: 2.1 °C
ΔTm [13]: 4.2 °C
ΔTm [14]: 14.8 °C
ΔTm [15]: 0.8 °C
ΔTm [16]: 0.3 °C
ΔTm [17]: 3.5 °C

CC(C)c1cc(/C=C(\C#N)C(=O)NCCCc2ccccc2)cc(C(C)C)c1O
ΔTm [1]: 1.2 °C
ΔTm [2]: 0.8 °C
ΔTm [3]: 0.5 °C
ΔTm [4]: 1.3 °C
ΔTm [5]: 2.1 °C
ΔTm [6]: 1.2 °C
ΔTm [7]: -0.1 °C
ΔTm [8]: 0.8 °C
ΔTm [9]: 0.7 °C
ΔTm [10]: 0.3 °C
ΔTm [11]: 1 °C
ΔTm [12]: 1.2 °C
ΔTm [13]: -0.1 °C
ΔTm [14]: 0.8 °C
ΔTm [15]: 0.7 °C
ΔTm [16]: 0.8 °C
ΔTm [17]: 0.7 °C

Cn1cc(C2=C(c3cn(CCCN)c4ccccc34)C(=O)NC2=O)c2ccccc21
ΔTm [1]: 3 °C
ΔTm [2]: 0.5 °C
ΔTm [3]: 0.3 °C
ΔTm [4]: 0.3 °C
ΔTm [5]: 0.9 °C
ΔTm [6]: 4.3 °C
ΔTm [7]: 4.7 °C
ΔTm [8]: 8.3 °C
ΔTm [9]: 5.6 °C
ΔTm [10]: 6.7 °C
ΔTm [11]: 8.1 °C
ΔTm [12]: 7.6 °C
ΔTm [13]: 6.7 °C
ΔTm [14]: 4.6 °C
ΔTm [15]: 0.6 °C
ΔTm [16]: 0.9 °C
ΔTm [17]: 2.3 °C
